Data from US10563272B2, “Compositions comprising Metarhizium fungi and use thereof as a pesticide” (Cotton Research and Development Corporation, priority 2015, dated 2020).

Key:
[1] = system: green mirids; experiment: Rate trial on conventional cotton refuge crops, Undabri 2012 (Example 12): green mirids; format: in vivo, Creontiades dilutus; details: adults P<0.03, nymphs P<0.001
Description: (§1) This trial was conducted using commercial conventional cotton refuge crops at Undabri in Goondiwindi (28° 55'S, 150° 31′E) from 14 Feb. to 6 Mar. 2012.
(§2) The efficacy of the following treatments against green mirids, green vegetable bugs and predatory insects was assessed: • 1. 250 mL/ha DAT 511 spore in oil (1×10^7 spores/ml); • 2. 500 mL/ha DAT 511 spore in oil (1×10^7 spores/ml); • 3. 1 L/ha DAT 511 spore in oil (1×10^7 spores/ml); • 4. 62.5 mL/ha fipronil; and • 5. Unsprayed (negative control).
(§3) The plots were arranged in a randomized complete block design with three replicates per treatment. Each replicated plot measured 8 m (8 rows) wide and 250 m long.
(§4) Foliar applications of each treatment were made on 14 Feb. 2012 using a ground spray rig fitted with flat fan nozzles to achieve a droplet size of 200 μm. All insecticide formulations were water miscible. All treatments were applied using a spray volume of 100 L/ha. The untreated (negative control) plot was left unsprayed and the plot treated with synthetic insecticide received two applications similar to, and on the same date as, the plots treated with the fungus.
(§5) For each replicate, visual counts of adults and nymphs of green mirids, green vegetable bugs (GVB), apple dimpling bugs and predatory insects on whole cotton plants were made in a randomly selected 1 m length of row of cotton plants (i.e. 6 m per treatment). […]

[2] = system: spiders; experiment: Foliar spray trial on Bollgard II cotton, Norwood 2010-11 (Example 7): spiders; format: in vivo, Lycosa spp., Oxyopes spp., Salticidae spp., Araneus spp.; details: fipronil 62.5 mL/ha; for number of spiders per meter: 1st spray, BC 667/DAT 511 0.50 L/ha; for number of spiders per metre: 2nd spray, BC 667/DAT 511 0.5 L/ha
Description: The trial was conducted on commercial Bollgard II® cotton crops at Norwood near Moree, NSW from 5 Dec. 2010 to 19 Feb. 2011. The cotton was at the early squaring stage, when it was attractive to green mirids (Khan et al. 2004).
(§6) The study evaluated the efficacy of the following treatments against green mirids, green vegetable bugs and predatory insects: • 1. 500 mL/ha BC 667 spore in oil (1×10^7 spores/ml); • 2. 500 mL/ha DAT 511 spore in oil (1×10^7 spores/ml); • 3. 62.5 mL/ha Fipronil (conventional insecticide); and • 4. Unsprayed (control).
(§7) The treatment plots were arranged in a randomized complete block design with four replicates per treatment. Each replicated plot measured 0.5 ha. Foliar application of each treatment was made on 18 Jan. 2011 using a ground spray rig fitted with flat fan nozzles to achieve a droplet size of 80 250 μm. The treatment was applied in the mornings when temperature was between 20° C. and 28° C. The timing of treatment was based on an economic threshold of 0.5 green mirids per metre, the IPM guideline and recommendation by CottonLogic.
Pre-treatment counts of green mirid adults and nymphs, predatory beetles, predatory bugs, predatory lacewings and spiders were made by visual inspection of whole cotton plants. Both adults and nymphs of the beneficial insects were counted. Plants were assessed in randomly selected one-metre lengths of row of each treatment replicate (i.e. four metres per treatment). In all, two spray applications of each treatment were made. The first spray was made on 18 Jan. 2011. Post-treatment counts of the first spray application were taken 3, 7 and 14 days after treatment (DAT) (first spray). A second spray application was done on 1 Feb. 2011 when green mirid adults plus nymphs reached the threshold of 0.5 per metre. Post-treatment counts of the second spray application were taken 3, 7, 14, 21 and 28 DAT. Data are expressed as numbers of individuals of that species counted per metre for each treatment.

[3] = Foliar spray trial on Bollgard II cotton, Norwood 2010-11 (Example 7): yield; format: in vivo; details: BC 667/DAT 511 0.50 L/ha, fipronil 62.5 mL/ha
Description: as §6, §7
Cotton in each treated plot was harvested separately using a four-row picker (John Deere, Model 9965, USA) at the end of the season and the average lint yields (bales/acre) were compared between treatments.

[4] = system: predatory beetles; experiment: Rate trial on conventional cotton refuge crops, Undabri 2012 (Example 12): predatory beetles; format: in vivo, Coleoptera (Coccinellidae, Melyridae); details: DAT 511 250 mL/ha, 500 mL/ha and 1.0 L/ha; fipronil 62.5 mL/ha
Description: as §1, §2, §3, §4, §5

[5] = system: predatory lacewings; experiment: Rate trial on conventional cotton refuge crops, Undabri 2012 (Example 12): predatory lacewings; format: in vivo, Chrysopa spp., Micromus tasmaniae; details: DAT 511 250 mL/ha, 500 mL/ha and 1.0 L/ha; fipronil 62.5 mL/ha
Description: as §1, §2, §3, §4, §5

[6] = system: apple dimpling bugs; experiment: Rate trial on conventional cotton refuge crops, Undabri 2012 (Example 12): apple dimpling bugs; format: in vivo, Campylomma liebknechti
Description: as §1, §2, §3, §4, §5

[7] = system: green vegetable bugs (GVB); experiment: Rate trial on conventional cotton refuge crops, Undabri 2012 (Example 12): green vegetable bugs; format: in vivo, Nezara viridula; details: 14 DAT (P<0.01) and 21 DAT (P<0.05); DAT 511 500 mL/ha and 1 L/ha, fipronil
Description: as §1, §2, §3, §4, §5

N#Cc1nn(-c2c(Cl)cc(C(F)(F)F)cc2Cl)c(N)c1[S+]([O-])C(F)(F)F (centres unmarked) [fipronil]
green mirid adults and nymphs per metre versus unsprayed plots [1]: Significantly fewer | number of spiders per meter ([2]; 3 DAT): 3.33 ± 0.33 a per meter | number of spiders per meter ([2]; 7 DAT): 4.67 ± 2.03 b per meter | number of spiders per meter ([2]; 14 DAT): 9.67 ± 1.45 a per meter | number of spiders per meter ([2]; pre-spray counts 18 Jan. 2011): 9.33 ± 1.20 a per meter | number of spiders per metre ([2]; 3 DAT): 12.00 ± 1.16a per metre | number of spiders per metre ([2]; 7 DAT): 10.33 ± 2.67a per metre | number of spiders per metre ([2]; 14 DAT): 16.00 ± 0.58b per metre | number of spiders per metre ([2]; 21 DAT): 21.00 ± 3.22a per metre | number of spiders per metre ([2]; 28 DAT): 21.00 ± 3.00a per metre | number of spiders per metre ([2]; pre-spray counts 1 Feb. 2011): 9.67 ± 1.45a per metre | Yields (bales/acre) [3]: 4.67 ± 0.63 a bales/acre | effect on number of predatory beetles per metre [4]: identical | effect on number of predatory lacewings per metre [5]: significantly lower | apple dimpling bug adults per metre versus the unsprayed plot ([6]; 3, 7, 14 and 21 DAT, P<0.01): significantly fewer | apple dimpling bug nymphs per metre versus unsprayed plots ([6]; 7 DAT only, P<0.05): significantly lower | green vegetable bugs per metre on unsprayed plots relative to treated plots [7]: significantly higher
